According to paper PMC11939955, “Enhancing Antimicrobial Peptides from Frog Skin: A Rational Approach” (Biomolecules, 2025):
Where no end group is shown, it is not given here.

Assays:
[1] = tested on: Acinetobacter baumannii (ATCC 13304); assay type: cell-based; details: for Reduction in MIC against A. baumannii compared to hylin-Pul3: versus parent peptide hylin-Pul3
Description: (§1) Hylin-Pul3 and six derivatives (dHP3-31, dHP3-50, dHP3-50.137, dHP3-50.190, dHP3-84, and dHP3-84.39) were tested against two Gram-positive bacteria, Staphylococcus aureus (ATCC 25923) and Streptococcus mutans (ATCC 25175), as well as three Gram-negative bacteria: Escherichia coli (ATCC 25922), Klebsiella pneumoniae (ATCC 13883), and Acinetobacter baumannii (ATCC 13304). The minimal inhibitory concentration (MIC) was determined using the microbroth dilution.
(§2) The peptides were serially diluted in concentrations ranging 128 to 0.25 μM, with gentamicin serving as a positive control, which was serially diluted to concentrations of 20 to 0.04 μM. Bacterial cultures were prepared in Mueller–Hinton (MH) medium to achieve a final inoculum concentration of 5 × 10^5 CFU/mL. […] All tests were performed in duplicate and repeated across three independent experiments.

[2] = tested on: Escherichia coli (ATCC 25922); assay type: cell-based; details: for Reduction in MIC against E. coli compared to hylin-Pul3: versus parent peptide hylin-Pul3
Description: as §1, §2

[3] = tested on: Klebsiella pneumoniae (ATCC 13883); assay type: cell-based
Description: as §1, §2

[4] = tested on: Staphylococcus aureus (ATCC 25923); assay type: cell-based
Description: as §1, §2

[5] = tested on: Streptococcus mutans (ATCC 25175); assay type: cell-based
Description: as §1, §2

[6] = tested on: E. coli (ATCC 25922); assay: Synergistic checkerboard assay; assay type: cell-based, Escherichia coli
Description: Briefly, working solutions of the peptides were prepared and serially diluted by half across the rows and columns of a microplate, ensuring that each well contained a unique combination of peptide concentrations. The starting concentrations corresponded to the respective MIC values of each peptide, followed by two-fold serial dilutions.
Each well was filled with 50 µL of the peptide solution (individual or combined) and 50 µL of a bacterial suspension (1 × 10^6 CFU/mL), resulting in a final bacterial concentration of 5 × 10^5 CFU/mL. The individual peptide solutions served as positive controls, while the MH medium was employed as a negative control. The microplates were incubated at 37 °C overnight. The test was performed in three independent experiments. The fractional inhibitory concentrations index (ΣFIC) was calculated using the following equation: (1) ∑FIC =MIC(A) in combination/MIC(A) alone+MIC(B) in combination /MIC(B) alone
The FIC index (ΣFIC) was interpreted as follows: ΣFIC ≤ 0.5 indicated synergy; 0.5 < ΣFIC ≤ 4 indicated no effect; and 4 < ΣFIC indicated antagonism.

[7] = tested on: Varicellovirus suidalpha1; assay type: cell-based; details: hylin-Pul3 at 20 μg/mL (10.8 μM), dHP3-84 at 75 μg/mL (34.5 μM); Vero monolayers, 90 min adsorption then 72 h at 37 °C, plaque titer, duplicate
Description: Antiviral activity assays were performed following a previously described protocol with slight modifications. The efficacy of the peptide compounds was assessed at different stages of the viral lifecycle, including adsorption, penetration, and intracellular replication. The hylin-Pul3 and dHP3-84 peptides were tested at non-cytotoxic concentrations of 20 μg/mL (10.8 μM) and 75 μg/mL (34.5 μM), respectively. Vero cell monolayers (African green monkey kidney cells) were cultured in 24-well plates and exposed to the peptide solutions along with serial 10-fold dilutions of Varicellovirus suidalpha1, formerly known as Herpes suis virus type 1 (HSV-1). The assays were performed in duplicate. […] The viral plaques that formed on the Vero cells were stained (1% crystal violet) and the viral titers were determined. The percentage viral inhibition was calculated by comparing the reduction in viral titer between the treatment and control groups. This was determined using the following formula: (2) % viral inhibition=100−A/B×100 where “A” represents the viral titer expressed in PFU/mL (Plaque-Forming Units per milliliter) obtained in the treated cultures and “B” is the viral titer expressed in PFU/mL obtained in the untreated cultures.

[8] = tested on: Vero cells; assay type: cell-based, African green monkey; details: for CC50, concentration inducing 50% cell death in Vero cells / Cytotoxicity in Vero cells, CC50: 48 h
Description: The cytotoxicity of hylin-Pul3 and dHP3-84 peptides was evaluated on Vero cells procured from the Asociación Banco Argentino de Células (ABAC; Buenos Aires, Argentina). Cell viability was determined using the Neutral Red Uptake test (NRU) test, following a previously described methodology. The Vero cells were cultured in Minimum Essential Medium (MEM) supplemented with 8% fetal calf serum (FCS), 50 μg/mL gentamicin, and 2 mM glutamine. The cells were monitored by observing their morphological changes after 24 and 48 h of incubation.
For the NRU assay, the cells were seeded in 96-well culture plates at a density of 1 × 10^5 cells per well. The cell monolayers were treated with increasing concentrations of the peptide solutions (25–500 μg/mL) for 48 h in triplicate. The monolayers incubated with MM only were used as the control. Following exposure, the culture medium was replaced with 150 μL of a […] neutral red solution in MEM. After incubation at 37 °C for 3 h, the dye medium was discarded and the wells were gently washed with PBS. The intracellular dye was extracted using a mixture of acetic acid, ethanol, and water (1:50:49). After gentle agitation for 10 min, the absorbance values were measured at 540 nm.
The relative cell viability was calculated as a percentage of the NRU observed in the untreated control groups. The cell survival fraction was determined using the following formula: (4) Survival Fraction % (SF%)=D.O. treated cells/D.O. control cells×100

[9] = DPPH radical-scavenging activity; details: peptides 0.1, 0.05, 0.025 mg/mL, 30 min dark 25 °C, absorbance 515 nm, triplicate
Description: A stock solution of 60 µM 1,1-diphenyl-2-picrylhydrazyl (DPPH) was prepared in ethanol, with its absorbance adjusted to 0.7 at 515 nm immediately before the assay using a Shimadzu 1240 UV–visible spectrophotometer (Kyoto, Japan). The peptides were dissolved in PBS, and 20 µL aliquots of each peptide solution were incubated with 180 µL of the ethanolic DPPH solution in triplicate, at final concentrations of 0.1, 0.05, and 0.025 mg/mL. For the negative control, 20 µL of PBS was mixed with 180 µL of the DPPH solution, while 20 µL of Trolox (6-hydroxy-2,5,7,8-tetramethylchroman-2-carboxylic acid) served as the positive control and standard. The mixtures were incubated in the dark at 25 °C for 30 min, after which, the absorbance was measured at 515 nm. The reduction in absorbance, indicative of DPPH-scavenging activity, was compared to a standard curve. The results were expressed as milligrams of Trolox equivalents per milligram of peptide (mg Trolox equivalents/mg of peptide).

[10] = ABTS assay; details: peptides 0.05, 0.025, 0.0125 mg/mL, 1 h dark, absorbance 734 nm, triplicate
Description: The 2,2-azinobis-3-ethylbenzothiazoline-6-sulfonic acid (ABTS^+) free radical-scavenging activity was determined following the method in [38]. The ABTS⁺ radical cation was generated by diluting a 245 mM ammonium persulfate (APS) solution at a ratio of 1:100 with a 7 mM ABTS solution, followed by overnight incubation in the dark at room temperature. The ABTS^+ solution was then diluted with water to obtain an absorbance of 0.70 at 734 nm immediately before the assay using a Shimadzu 1240 UV-visible spectrophotometer (Kyoto, Japan). The peptides were dissolved in PBS, and 10 µL aliquots of each peptide solution were incubated with 190 µL of the ABTS^+ solution in triplicate, at final concentrations of 0.05, 0.025, and 0.0125 mg/mL. After a 1 h incubation in the dark, the absorbance was measured at 734 nm. The radical-scavenging activity was quantified against a standard curve, with the results expressed as milligrams of Trolox equivalents per milligram of peptide.

Row | Substance | Antimicrobial Activity (MIC) A. baumannii ATCC 13304 [1] [µM] | Antimicrobial Activity (MIC) E. coli ATCC 25922 [2] [µM] | Antimicrobial Activity (MIC) K. pneumoniae ATCC 13883 [3] [µM] | Antimicrobial Activity (MIC) S. aureus ATCC 25923 [4] [µM] | Antimicrobial Activity (MIC) S. mutans ATCC 25175 [5] [µM] | Reduction in MIC against A. baumannii compared to hylin-Pul3 [1] [fold] | Reduction in MIC against E. coli compared to hylin-Pul3 [2] [fold] | Lower MIC than the original peptide against K. pneumoniae ([3]; versus hylin-Pul3) [fold] | Synergistic Activity, FIC Index (ΣFIC) ([6]; combination of dHP3-84 and dHP3-50.137, E. coli ATCC 25922, 5 × 10^5 CFU/mL, 37 °C overnight, three independent experiments, ΣFIC ≤ 0.5 = synergy) | Improvement of combined activity compared to each peptide individually ([6]; dHP3-84 + dHP3-50.137, E. coli) [fold] | Antiviral Activity, viral inhibition [7] [%] | Cytotoxicity in Vero cells, MNCC [8] [µM] | CC50, concentration inducing 50% cell death in Vero cells [8] [µg/mL] | Cytotoxicity in Vero cells, CC50 [8] [µM] | Antioxidant activity DPPH [9] | Antioxidant activity ABTS [10] [mg Trolox/mg]
1 | RRIALIPAIRGAIKKLIKK-NH2 [dHP3-50.190] | 16.0 ± 0.0 | 9.3 ± 3.2 | >64 | 29.3 ± 6.5 | 32.0 ± 0.0 | – | – | – | – | – | – | – | – | – | – | –
2 | RLGALIPAIRGAIKKLIKK-NH2 [dHP3-50] | 6.6 ± 2 | 8.0 ± 0.0 | 64.0 ± 0.0 | 18.6 ± 6.5 | 8.0 ± 0.0 | 4 | 4 | – | – | – | – | – | – | – | – | –
3 | RLGKLIPRIAKAIGRLIRK-OH [dHP3-84] | 8.0 ± 0.0 | 8.0 ± 0.0 | 18.6 ± 6.5 | 9.3 ± 3.3 | 7.3 ± 1.6 | 4 | 4 | 4 | 0.5 | 2 | 70 | 57.6 | 230 | 105.9 | – | –
4 | FLGALIPAIAGAIGGLIRK-NH2 [hylin-Pul3, reference compound] | 32.0 ± 0.0 | 32.0 ± 0.0 | >64 | 7.3 ± 1.6 | 4.6 ± 1.6 | – | – | – | – | – | 0 | 13.5 | 80 | 43.2 | – | –
5 | LWPAIRGAIKKLIKK-NH2 [dHP3-31] | 9.3 ± 3.2 | 16.0 ± 0.0 | >64 | 37.3 ± 13.1 | 18.7 ± 6.5 | 4 | 4 | – | – | – | – | – | – | – | did not reveal significant activity | 0.14
